The source of these data is ChEMBL document CHEMBL1158701, “Sesquiterpene phenylpropanoids from Ferula fukanensis and their nitric oxide production inhibitory effects” (J Nat Prod, 2005).

Calls of active or inactive are those of the source. The rule behind the calls is not given here.

Experiment [1] concerns RAW264.7. Put plainly: Inhibition of LPS/IFNgamma -induced NO production in mouse RAW264.7 cells after 16 hrs. It counts as functional, cell-based. Conditions: RAW264.7, 16 h.
Experiment [2] deals with RAW264.7. Put plainly: Inhibition of LPS/IFNgamma -induced NO production in mouse RAW264.7 cells at 30 ug/ml after 16 hrs. The experiment is classed as functional, cell-based.

For `CCCCOC(=O)C(=O)c1ccc(O)cc1O` [FUKANEKETOESTER A], inhibition in the experiment with RAW264.7 [1] was half-maximal at 113 µM (IC50).

Take `CC(C)=CC(=O)/C=C(/C)CCC[C@@]1(C)OC(=O)[C@H](C(=O)c2ccc(O)cc2O)[C@H]1C` (relative stereo) [FUKANEDONE D]: the IC50 with RAW264.7 [1] turned out to be 27.8 µM.

In the case of `COc1ccc(C(=O)[C@H]2C(=O)O[C@](C)(CC/C=C(\C)Cc3cc(C)co3)[C@@H]2C)c(O)c1` (relative stereo) [FUKANEDONE E], 76.2 µM corresponded to half-maximal inhibition in the experiment on RAW264.7 [1] (IC50).

Take `CC(C)=CC(=O)/C=C(\C)CCC[C@@]1(C)OC(=O)[C@H](C(=O)c2ccc(O)cc2O)[C@H]1C` (relative stereo) [FUKANEDONE C]: the half-maximal inhibitory concentration (IC50) in the experiment on RAW264.7 [1] is 6.7 µM.

On to `COc1ccc(C(=O)[C@H]2C(=O)O[C@](C)(CC/C=C(\C)CCC=C(C)C)[C@@H]2C)c(O)c1` (relative stereo), for which, in the experiment with RAW264.7 [2], the outcome was inactive.

Consider `CC(C)=CCC/C(C)=C/CC[C@]1(C)OC(=O)[C@H](C(=O)c2ccc(O)cc2O)[C@H]1C` (relative stereo), for which the outcome with RAW264.7 [2] was inactive.
